Consider 28 molecules from patent publication US20080280837A1, “Biologically Active Compounds with Anti-Angiogenic Properties” (priority 2004, published 2008).

The target in the test is T1, Human SST5 somatostatin receptor (SSTR5) (Homo sapiens, UniProt P35346).
T1 construct: expressed in transfected cells; host or cells: HEK-293 EBNA
Description: Filter plate assay for SST5 receptor, displacement of [125I]SST-14. It counts as binding. The gist of the method:
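HEK-293 EBNA membranes expressing human SST5 (5.5 μg) incubated 60 min at 25 °C with 4 nM [125I]SST-14 and compound in pH 7.5 Tris/EGTA/MgCl2/sucrose buffer. Bound radioactivity collected on PEI-coated glass fiber filters and counted; triplicate 1:5 dilution series from 125 μM, non-specific binding with excess cold ligand.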
In general terms: In a radioligand displacement assay an active substance lowers the binding of a labelled ligand.

T1 sequence (P35346 whole entry): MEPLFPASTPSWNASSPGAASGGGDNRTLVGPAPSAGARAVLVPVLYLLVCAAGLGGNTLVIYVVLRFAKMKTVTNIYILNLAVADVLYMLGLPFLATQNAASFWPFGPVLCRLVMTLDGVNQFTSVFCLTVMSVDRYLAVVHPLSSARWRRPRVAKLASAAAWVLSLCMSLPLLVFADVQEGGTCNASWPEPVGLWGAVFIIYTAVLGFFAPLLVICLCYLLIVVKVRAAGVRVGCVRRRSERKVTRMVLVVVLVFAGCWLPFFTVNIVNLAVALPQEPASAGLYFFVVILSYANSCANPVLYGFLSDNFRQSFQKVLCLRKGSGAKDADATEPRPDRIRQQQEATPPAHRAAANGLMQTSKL

Turning to `COC[C@H]1OC(OCc2ccc(Cl)cc2)[C@H](NC(=O)CCCN)[C@@H](OCc2ccccc2)[C@@H]1O` (some centres unmarked) [Compound 164], the “SSTR5 Inhib 0.5 uM % (inhibition of binding of SST-14 to SSTR5)” value (“SSTR5 Inhib 0.5 uM %” below) is on record as 39% and the “SSTR5 Inhib 10 uM % (inhibition of binding of SST-14 to SSTR5)” value (from here on “SSTR5 Inhib 10 uM %”) was found to be 73%.

Regarding `COC[C@H]1OC(OCc2ccccc2)[C@H](NC(=O)CCCNC(=N)N)[C@@H](OCc2ccc(-c3ccccc3)cc2)[C@@H]1O` (some centres unmarked) [Compound 165], the “SSTR5 Inhib 0.5 uM %” value is given as 37% and the “SSTR5 Inhib 10 uM %” value worked out at 73%.

Take `COC[C@H]1OC(OCc2ccc(Cl)cc2)[C@H](NC(=O)CCCN)[C@H](OCc2ccccc2)[C@@H]1O` (some centres unmarked) [Compound 117]: the “SSTR5 Inhib 0.5 uM %” value worked out at 46% and the “SSTR5 Inhib 10 uM %” value amounted to 82%.

On to `COC[C@H]1OC(OCc2ccc(-c3ccccc3)cc2)[C@H](NC(=O)CCCN)[C@@H](OCc2ccc(-c3ccccc3)cc2)[C@@H]1O` (some centres unmarked) [Compound 31], for which the “SSTR5 Inhib 0.5 uM %” value is reported as 85% and the “SSTR5 Inhib 10 uM %” value is on record as 96%.

On to `COC[C@H]1OC(OCCc2ccccc2)[C@H](NC(=O)CCCN)[C@@H](OCc2ccc(-c3ccccc3)cc2)[C@@H]1O` (some centres unmarked) [Compound 65], for which the “SSTR5 Inhib 0.5 uM %” value is on record as 61% and the “SSTR5 Inhib 10 uM %” value came out at 90%.

Turning to `COC[C@H]1OC(OCc2ccccc2)[C@H](NC(=O)CCCN)[C@@H](OCc2cccc(O)c2)[C@@H]1O` (some centres unmarked) [Compound 144], the “SSTR5 Inhib 0.5 uM %” value came to 45% and the “SSTR5 Inhib 10 uM %” value amounted to 78%.

`COC[C@H]1OC(OCc2ccc(Cl)cc2)[C@H](NC(=O)CCCN)[C@@H](OCc2ccc(-c3ccccc3)cc2)[C@@H]1O` (some centres unmarked) [Compound 90]: the “SSTR5 Inhib 0.5 uM %” value is listed as 52% and the “SSTR5 Inhib 10 uM %” value came out at 86%.

On to `COC[C@H]1OC(OCc2ccc(-c3ccccc3)cc2)[C@H](NC(=O)CCCNC(=N)N)[C@@H](OCc2ccc3ccccc3c2)[C@@H]1O` (some centres unmarked) [Compound 107], for which the “SSTR5 Inhib 0.5 uM %” value was 54% and the “SSTR5 Inhib 10 uM %” value came to 83%.

Take `CSC1O[C@H](COCc2ccc(-c3ccccc3)cc2)[C@@H](O)[C@@H](OCc2ccc3ccccc3c2)[C@H]1NC(=O)CCN` (some centres unmarked) [Compound 66]: the “SSTR5 Inhib 0.5 uM %” value turned out to be 61% and the “SSTR5 Inhib 10 uM %” value came out at 89%.

As to `COC[C@H]1OC(OCc2ccc(Cl)cc2)[C@H](NC(=O)CCCN)[C@@H](OCc2ccc(-c3ccccc3)cc2)[C@@H]1O` (some centres unmarked) [Compound 30], the “SSTR5 Inhib 0.5 uM %” value came to 80% and the “SSTR5 Inhib 10 uM %” value worked out at 96%.

With `COC[C@H]1OC(OCc2ccc3ccccc3c2)[C@H](NC(=O)CCCN)[C@H](OCc2ccccc2)[C@@H]1O` (some centres unmarked) [Compound 92], the “SSTR5 Inhib 0.5 uM %” value was 52% and the “SSTR5 Inhib 10 uM %” value stood at 86%.

Consider `COC1C(O)C(COCc2ccc(-c3ccccc3)cc2)OC(OCc2ccc(-c3ccccc3)cc2)C1NC(=O)CCNC(=N)N` (centres unmarked) [Compound 136], for which the “SSTR5 Inhib 0.5 uM %” value stood at 26% and the “SSTR5 Inhib 10 uM %” value is listed as 79%.

Regarding `COC[C@H]1OC(OCc2ccccc2)[C@H](NC(=O)CCCN)[C@H](OCc2ccc3ccccc3c2)[C@@H]1O` (some centres unmarked) [Compound 76], the “SSTR5 Inhib 0.5 uM %” value came out at 51% and the “SSTR5 Inhib 10 uM %” value was determined as 88%.

Regarding `COC[C@H]1OC(OCCc2ccccc2)[C@H](NC(=O)CCCN)[C@@H](OCc2cccc(O)c2)[C@@H]1O` (some centres unmarked) [Compound 147], the “SSTR5 Inhib 0.5 uM %” value was determined as 40% and the “SSTR5 Inhib 10 uM %” value is 77%.

Consider `COC1C(O)C(COCc2ccc3ccccc3c2)OC(OCc2ccc3ccccc3c2)C1NC(=O)CCNC(=N)N` (centres unmarked) [Compound 115], for which the “SSTR5 Inhib 0.5 uM %” value worked out at 50% and the “SSTR5 Inhib 10 uM %” value turned out to be 82%.

For `COC[C@H]1OC(OCCc2ccccc2)[C@H](NC(=O)CCCN)[C@@H](OCc2ccc(Cl)cc2)[C@@H]1O` (some centres unmarked) [Compound 42], the “SSTR5 Inhib 0.5 uM %” value worked out at 77% and the “SSTR5 Inhib 10 uM %” value was found to be 94%.

As to `COC[C@H]1OC(OCCc2ccccc2)[C@H](NC(=O)CCCNC(=N)N)[C@H](OCc2ccc(Cl)cc2)[C@@H]1O` (some centres unmarked) [Compound 62], the “SSTR5 Inhib 0.5 uM %” value is on record as 61% and the “SSTR5 Inhib 10 uM %” value is on record as 90%.

With `COC[C@H]1OC(OCc2ccc(Cl)cc2)[C@H](NC(=O)CCCNC(=N)N)[C@@H](OCc2ccc(Cl)cc2)[C@@H]1O` (some centres unmarked) [Compound 56], the “SSTR5 Inhib 0.5 uM %” value is recorded as 57% and the “SSTR5 Inhib 10 uM %” value was 91%.

For `COC[C@H]1OC(OCc2ccccc2)[C@H](NC(=O)CCCN)[C@@H](OCc2ccc3ccccc3c2)[C@@H]1O` (some centres unmarked) [Compound 32], the “SSTR5 Inhib 0.5 uM %” value came out at 80% and the “SSTR5 Inhib 10 uM %” value stood at 95%.

`COC[C@H]1OC(OCCc2ccccc2)[C@H](NC(=O)CCCNC(=N)N)[C@@H](OCc2ccc(Cl)cc2)[C@@H]1O` (some centres unmarked) [Compound 98]: the “SSTR5 Inhib 0.5 uM %” value was 55% and the “SSTR5 Inhib 10 uM %” value amounted to 84%.

Consider `COC[C@H]1OC(OCc2ccc3ccccc3c2)[C@H](NC(=O)CCCN)[C@H](OCc2ccc(Cl)cc2)[C@@H]1O` (some centres unmarked) [Compound 20], for which the “SSTR5 Inhib 0.5 uM %” value stood at 76% and the “SSTR5 Inhib 10 uM %” value amounted to 97%.

`CSC1O[C@H](COCc2ccccc2)[C@@H](O)[C@@H](OCc2ccc3ccccc3c2)[C@H]1NC(=O)CCN` (some centres unmarked) [Compound 109]: the “SSTR5 Inhib 0.5 uM %” value is on record as 44% and the “SSTR5 Inhib 10 uM %” value stood at 83%.

Take `CSC1O[C@H](COCc2ccc(Cl)cc2)[C@@H](O)[C@@H](OCc2ccccc2)[C@H]1NC(=O)CCNC(=N)N` (some centres unmarked) [Compound 142]: the “SSTR5 Inhib 0.5 uM %” value is 44% and the “SSTR5 Inhib 10 uM %” value turned out to be 78%.

`COC[C@H]1OC(OCc2ccc(-c3ccccc3)cc2)[C@H](NC(=O)CCCNC(=N)N)[C@@H](OCc2ccc(-c3ccccc3)cc2)[C@@H]1O` (some centres unmarked) [Compound 55]: the “SSTR5 Inhib 0.5 uM %” value is 71% and the “SSTR5 Inhib 10 uM %” value is 91%.

For `COC[C@H]1OC(OCc2ccc3ccccc3c2)[C@H](NC(=O)CNC(=N)N)[C@H](OCc2ccc(Cl)cc2)[C@@H]1O` (some centres unmarked) [Compound 133], the “SSTR5 Inhib 0.5 uM %” value amounted to 24% and the “SSTR5 Inhib 10 uM %” value was 80%.

As to `COC[C@H]1OC(OCCc2ccccc2)[C@H](NC(=O)CCN)[C@H](OCc2ccccc2)[C@@H]1O` (some centres unmarked) [Compound 106], the “SSTR5 Inhib 0.5 uM %” value is listed as 53% and the “SSTR5 Inhib 10 uM %” value was 83%.

Take `COC[C@H]1OC(OCc2ccc3ccccc3c2)[C@H](NC(=O)CCCNC(=N)N)[C@H](OCc2ccccc2)[C@@H]1O` (some centres unmarked) [Compound 64]: the “SSTR5 Inhib 0.5 uM %” value is reported as 57% and the “SSTR5 Inhib 10 uM %” value was 90%.

For the molecule `COC1C(O)C(COCc2ccc(Cl)cc2)OC(OCc2ccc(-c3ccccc3)cc2)C1NC(=O)CCNC(=N)N` (centres unmarked) [Compound 78], the “SSTR5 Inhib 0.5 uM %” value is recorded as 43% and the “SSTR5 Inhib 10 uM %” value was determined as 88%.
